US20210121426A1, “BLOOD PURIFICATION BY ALKALINIZING AGENT” (TOHOKU UNIVERSITY, priority 2017, published 2021)
Marks after values point to notes of the source that are not given here.

Tested on: indoxyl sulfate
Assay: Human clinical trial in CKD patients: indoxyl sulfate in plasma and early morning urine (LC-MS/MS)
Assay type: in vivo
Parameters: key to Influence on concentration of IS / Influence on IS U/P ratio: Excellent effects: ◯; Poor effects: X; No significant difference: —; (◯): whether or not there is an effect of promoting excretion of indoxyl sulfate into the urine cannot be determined
Experimental: 1. […] Patients were assigned to each group so that age, sex, presence of diabetes, and eGFR were not biased. Each group was treated according to the “CKD medical care guide-summary of treatment” (hereinafter referred to as standard treatment).
An alkalinizing agent was not administered to the control group. […] A pH of early morning urine was controlled over time so that the dosage could be increased up to 6 tablets, 3 times a day (morning, noon, evening) as needed according to the discretion of the physician in cases where a pH of early morning urine was less than pH 6.5. To the group B, 3 tablets a day in which each tablet contained 500 mg of sodium bicarbonate were orally administered 3 times a day (morning, noon, evening) for 24 weeks. A pH of early morning urine was controlled over time so that the dosage could be increased up to 6 tablets, 3 times a day (morning, noon, evening) as needed according to the discretion of the physician in cases where a pH of early morning urine was less than pH 6.5.
Early morning urine and blood were collected before the start of administration, and 6 weeks, 12 weeks, and 24 weeks after the start of administration, and each specimen was stored at −80° C. Methods used in the present field for indoxyl sulfate, p-cresyl sulfate, phenylacetyl-L-glutamine, hippuric acid, and argininosuccinic acid in urine and blood (Sato, E., et. al., Metabolic alteration by indoxyl sulfate in skeletal muscle induce uremic sarcopenia in chronic kidney disease., Sci Rep. 2016 Nov. 10; 6:36618. doi: 10.1038/srep36618, and the like) were referred to, and quantitative analysis was performed using the following liquid chromatography triple quadrupole mass spectrometer (LC-MS/MS).
For LC, NANOSPACE SI-2 (manufactured by Shiseido) was used, and […] MGM was selected as the analytical column.
For MS, TSQ Quantiva (manufactured by Thermo Fisher Scientific Co., Ltd.) was used, and five compounds were ionized in the negative mode and detected using the Selected Reaction Monitoring method. The quantitative value was calculated using a calibration curve prepared with a standard solution of each compound.
For statistical analysis, the Mann-Whitney test was used for comparison between groups, and the Wilcoxon test was used for comparison of changes over time. The Pearson test was used for correlation.
Then, the average value and SD of each group were calculated for (i) to (ix) above. For each of (iv) to (ix) above, the average value and SD of each group were calculated for all data of 6 weeks, 12 weeks, and 24 weeks after the start of administration in each group.

[1] = 0 W, before the start of administration
[2] = 6-24 W, all data of 6, 12 and 24 weeks
[3] = compared to before administration

Question: How did the “Indoxyl Sulfate-Urine/Plasma ratio” value [1] turn out when `O=C([O-])O.[Na+]` [Bicarbonate, sodium bicarbonate] was run?
Answer: The value was 55.5 ± 43.6.

Question: And the “Plasma Indoxyl Sulfate” value [1]?
Answer: The value was 1338 ± 770 ng/mL.

Question: What about the “Urine Indoxyl Sulfate (early morning urine)” value [1] of the same molecule?
Answer: The value was 54379 ± 40259 ng/mL.

Question: And the “Indoxyl Sulfate-Urine/Plasma ratio” value [2]?
Answer: Its value is 46.2 ± 33.7^d.

Question: And the “Indoxyl Sulfate-Urine/Plasma ratio, change from week 0” value [2]?
Answer: The value was −10.33 ± 36.35.

Question: What about the “Plasma Indoxyl Sulfate” value [2] of the same molecule?
Answer: The value was 1426 ± 930 ng/mL.

Question: And the “Plasma Indoxyl Sulfate, change from week 0” value [2]?
Answer: Its value is 107.0 ± 695.8 ng/mL.

Question: What about the “Urine Indoxyl Sulfate (early morning urine)” value [2] of the same molecule?
Answer: The value was 48954 ± 35769^d ng/mL.

Question: And the “Urine Indoxyl Sulfate, change from week 0” value [2]?
Answer: Its value is -5425 ± 38514 ng/mL.

Question: And the “Indoxyl Sulfate-Urine/Plasma ratio” value (6 W)?
Answer: Its value is 51.7 ± 36.4.

Question: What about the “Indoxyl Sulfate-Urine/Plasma ratio, change from week 0” value (6 W) of the same molecule?
Answer: The value was −3.81 ± 37.48.

Question: And the “Plasma Indoxyl Sulfate” value (6 W)?
Answer: Its value is 1365 ± 821 ng/mL.

Question: What about the “Plasma Indoxyl Sulfate, change from week 0” value (6 W) of the same molecule?
Answer: The value was 27.5 ± 523.0 ng/mL.

Question: And the “Urine Indoxyl Sulfate (early morning urine)” value (6 W)?
Answer: The value was 52510 ± 39229 ng/mL.

Question: What about the “Urine Indoxyl Sulfate, change from week 0” value (6 W) of the same molecule?
Answer: Its value is -1869 ± 19390 ng/mL.

Question: And the “Indoxyl Sulfate-Urine/Plasma ratio” value (12 W)?
Answer: Its value is 35.3 ± 26.4.

Question: And the “Indoxyl Sulfate-Urine/Plasma ratio, change from week 0” value (12 W)?
Answer: Its value is −22.41 ± 35.49.

Question: What about the “Plasma Indoxyl Sulfate” value (12 W) of the same molecule?
Answer: The value was 1432 ± 1031 ng/mL.

Question: What about the “Plasma Indoxyl Sulfate, change from week 0” value (12 W) of the same molecule?
Answer: Its value is 153.1 ± 887.4 ng/mL.

Question: And the “Urine Indoxyl Sulfate (early morning urine)” value (12 W)?
Answer: Its value is 37860 ± 26401 ng/mL.

Question: And the “Urine Indoxyl Sulfate, change from week 0” value (12 W)?
Answer: Its value is -16519 ± 40380 ng/mL.

Question: And the “Indoxyl Sulfate-Urine/Plasma ratio” value (24 W)?
Answer: Its value is 50.7 ± 36.5^c.

Question: And the “Indoxyl Sulfate-Urine/Plasma ratio, change from week 0” value (24 W)?
Answer: The value was −4.78 ± 35.33.

Question: What about the “Plasma Indoxyl Sulfate” value (24 W) of the same molecule?
Answer: The value was 1481 ± 988 ng/mL.

Question: What about the “Plasma Indoxyl Sulfate, change from week 0” value (24 W) of the same molecule?
Answer: The value was 143.4 ± 682.5 ng/mL.

Question: What about the “Urine Indoxyl Sulfate (early morning urine)” value (24 W) of the same molecule?
Answer: Its value is 56492 ± 39593 ng/mL.

Question: What about the “Urine Indoxyl Sulfate, change from week 0” value (24 W) of the same molecule?
Answer: The value was 2113 ± 49356 ng/mL.

Question: What about the “Influence on concentration of IS” value (Plasma, comparison with Cont) of the same molecule?
Answer: The value was “—”.

Question: What about the “Influence on concentration of IS” value (Plasma, comparison with reference drug) of the same molecule?
Answer: The value was “X”.

Question: And the “Influence on IS U/P ratio” value (comparison with Cont)?
Answer: Its value is “◯”.

Question: What about the “Influence on IS U/P ratio” value (comparison with reference drug) of the same molecule?
Answer: Its value is “X”.

Question: And the “Influence on concentration of IS” value (Urine, comparison with Cont)?
Answer: The value was “(◯)”.

Question: What about the “Influence on concentration of IS” value (Urine, comparison with reference drug) of the same molecule?
Answer: Its value is “X”.

Question: What about the “concentration of indoxyl sulfate in blood” value [3] of the same molecule?
Answer: Its value is “such an effect was not recognized”.

Question: And the “concentration of indoxyl sulfate in urine” value [3]?
Answer: Its value is “such an effect was not recognized”.
